Laboratory results: ChEMBL document CHEMBL1139879, “Indolizidine alkaloids with delta-opioid receptor binding affinity from the leaves of Elaeocarpus fuscoides” (J Nat Prod, 2007)
pIC50: −log10 of the molar value.

Molecular target: Delta-type opioid receptor (Homo sapiens, UniProt P41143)
Assay: Displacement of [125I]deltorphin 2 from human recombinant delta opioid receptor expressed in HEK cell membranes
Parameters: species or system HEK293

Delta-type opioid receptor, sequence (P41143 whole entry): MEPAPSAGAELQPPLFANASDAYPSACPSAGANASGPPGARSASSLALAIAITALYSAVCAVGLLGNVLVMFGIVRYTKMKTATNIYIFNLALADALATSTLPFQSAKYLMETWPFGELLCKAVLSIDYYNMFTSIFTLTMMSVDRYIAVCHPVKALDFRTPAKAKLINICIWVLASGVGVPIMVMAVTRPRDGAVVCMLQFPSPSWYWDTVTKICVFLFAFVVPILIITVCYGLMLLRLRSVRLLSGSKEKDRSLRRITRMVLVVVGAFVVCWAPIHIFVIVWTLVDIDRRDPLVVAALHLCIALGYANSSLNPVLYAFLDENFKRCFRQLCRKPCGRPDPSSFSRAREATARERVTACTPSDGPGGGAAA

Row | SMILES | pIC50
1 | Cc1cccc2c1C(=O)C1[C@H]3CCCN3CC[C@H]1O2 (some centres undefined) [ELAEOCARPINE] | 4.06
2 | Cc1cccc2c1C(=O)[C@H]1[C@H](CCN3CCC[C@H]13)O2 [ISOELAEOCARPINE] | 4.87
3 | Cc1cccc(O)c1C(=O)C1=CCCN2CCC[C@H]12 [ELAEOCARPENINE] | 5.56
4 | Cc1cccc(O)c1C(=O)[C@@H]1[C@H]2CCCN2CC[C@@H]1O [ISOELAEOCARPICINE] | 4.45
